Data taken from publication PMC11767451, “Novel Approaches to Monitor Pharmacokinetics and Metabolism of Gemcitabine-Ibandronate Conjugate in Mice and Dogs” (Molecules, 2025).
Like-named read-outs stand apart in the source and are kept apart here.

Columns and labels:
[1] = Proof-of-concept dog PK study, plasma levels of GEM-IB and metabolites by HPLC-MS/MS; format: in vivo, beagle dogs; conditions: for half-life: dog, plasma, 5 mg/kg; for Cmax: analyte = parent or metabolite; for AUC: over the observation period
Protocol: Assay A (GEM-IB and IB): The extraction of calibration standards, quality control samples, and PK study samples was identical. Plasma, quality control stocks, and calibrator stocks were removed from the storage freezer and kept at room temperature until fully thawed. Aliquots of 100 μL of standards/quality control or blank sample were transferred into a 1.5 mL low-binding polypropylene vial with a conical bottom and snap-on lid. An amount of 10 µL of the of the internal standard solution (15 and 10 µg/mL of IB-D3 and ATP-IS, respectively) was added and mixed. For protein precipitation, 50 μL of methanol was added and then samples were vortexed for 10 min. This was followed by centrifugation at 25,000× g for ten minutes at 4 °C (Thermo Scientific MR 23i Centrifuge, Thermo Scientific, Waltham, MA, USA). To remove remaining protein, the supernatant was transferred to 10,000 molecular weight cut off (MWCO) centrifugal filters (800 µL volume, PES 10,000 with 2.0 mL receiver tubes, Analytical Sales and Services, Flanders, NJ, USA) and centrifuged again at 25,000× g for ten minutes at 4 °C. The filtrate was transferred into HPLC vials and placed into the HPLC autosampler maintained at 4 °C.
Assay B (GEMMP, GEM dFdUMP and dFdU): The extraction of calibration standards and quality control samples was identical to that of study samples. An amount of 200 µL of plasma sample was added to a 1.5 mL snap-top Eppendorf tube with 100 µL of protein precipitation solution. The samples were then vortexed for five minutes followed by centrifugation at 25,000× g for ten minutes at 4 °C. Hereafter, supernatants were transferred to 10K Amicon centrifugal filters (Merck-Millipore, Burlington, MA, USA) and centrifuged at the same settings for 60 min. The filtrates were then transferred into HPLC vials for analysis.
Assay A (GEM-IB and IB): Quantification of the analytes was carried out using high-performance liquid chromatography–tandem mass spectrometry (HPLC-MS/MS). Chromatography was performed using an Agilent 1260 Infinity II bio-inert HPLC system (Agilent Technologies, Santa Clara, CA, USA) on a Hypercarb Porous Graphitic Carbon HPLC column (3 µm, 2.1 × 50 mm, Thermo Scientific, Waltham, MA, USA). The HPLC system consisted of an Agilent 1260 Infinity II bio-inert quaternary pump, an Agilent 1260 Infinity II bio-inert column oven, and an Agilent 1260 Infinity II bio-inert autosampler (Agilent Technologies, Santa Clara, CA, USA). An amount of 10 µL of the sample extracts was injected. The column was maintained at 22 °C. HPLC-MS-grade water supplemented with 10 mM hexafluoroisopropanol (HFIP) and 0.05% (v/v) diethyl amine (DEA) at pH 9.4 was used for the aqueous mobile phase (Buffer A) and HPLC-grade acetonitrile was used for the organic mobile phase (Buffer B). The flow rate was set to 400 µL/min throughout the assay. The initial settings were 98% Buffer A and 2% organic Buffer B for the first two minutes. During the following 0.7 min, the organic Buffer B was increased to 30%. At minute 3.5, the gradient reached 98% Buffer B, which was kept for 0.5 min, and at minute 4.2 the column was re-equilibrated to starting conditions for 2.8 min until the next injection. The HPLC system was connected to a Sciex a 5500+ triple quadrupole mass spectrometer (SCIEX, Concord, ON, Canada) via a turbo electrospray ionization source (SCIEX) operated in the negative electrospray ionization (ESI) mode. Data were acquired in negative multiple reaction monitoring (MRM) mode and all compounds were detected as [M–H ]^−. The ion transitions used during the multiple reaction monitoring mode were m/z = 318→236, 321→239, 643→342, and 521→79 for IB, IB-D3, GEM-IB, and adenosine-^13C10,^15N5 5′-triphosphate (^13C10-^15N5-ATP), respectively. The dwell time for analysis was set to 50 ms. The curtain gas was kept at 20 psi and the ion source gas at 55 psi. The ion spray voltage was −4500 volts, and the temperature of the ion source was set to 400 °C. […]

[2] = cited from earlier work
[3] = design: method as in PMID 33744463; conditions: (enriched) mouse plasma; cited from earlier work
[4] = design: method as in PMID 36571444, PMID 24131140, PMID 21561347; conditions: cancer patients; cited from earlier work
[5] = Stability in mouse plasma (accelerated, freeze-thaw, frozen PK samples); format: in vitro ADME; conditions: mouse plasma PK samples re-extracted after 2.5 years at <−70 °C
[6] = Stability in dog plasma (accelerated, freeze-thaw, frozen PK samples); format: in vitro ADME; conditions: dog plasma PK samples re-extracted after 2.5 years at <−70 °C
[7] = after GEM-IB 5 mg/kg 30 min i.v. infusion
[8] = beagle, iv, after GEM-IB 5 mg/kg 30 min i.v. infusion, read-out: T1/2 (converted)
[9] = beagle, iv, after GEM-IB 5 mg/kg 30 min i.v. infusion
[10] = beagle, iv, after the end of the 30 min i.v. infusion of GEM-IB 5 mg/kg, read-out: half-life

**Q.** Which results are given for `Nc1ccn([C@@H]2O[C@H](CO)[C@@H](O)C2(F)F)c(=O)n1` [GEM, gemcitabine]?
**A.** Rate Constant [1, 7]: 0.5 h⁻¹; half-life [1, 8]: 90.7 min; Tmax [1, 9]: 30 min; Cmax [1, 9]: 684 ng/mL; AUC [1, 9]: 1620 ng·h/mL; duration stable in human plasma ([2]; −70 °C): up to 30 days; duration stable in mouse plasma [3]: up to 42 days; fatal treatment-related events, share of patients [4]: <1% to 4

**Q.** Which “Rate Constant” value [1, 7] does the source give for `CCCCCN(C)CCC(O)(P(=O)(O)O)P(=O)(O)OP(=O)(O)OC[C@H]1O[C@@H](n2ccc(N)nc2=O)C(F)(F)[C@@H]1O` (some centres unmarked) [GEM-IB] here?
**A.** 50.6 h⁻¹

**Q.** And the half-life [1, 8]?
**A.** 0.84 min

**Q.** What about the half-life [1, 10] of the same compound?
**A.** < 1 min

**Q.** And the Tmax [1, 9]?
**A.** 30 min

**Q.** And the clearance [1, 9]?
**A.** 284 mL/min/kg

**Q.** What about the Cmax [1, 9] of the same compound?
**A.** 795 ng/mL

**Q.** And the AUC [1, 9]?
**A.** 295 ng·h/mL

**Q.** What about the Vd ([1]; beagle, iv, after GEM-IB 5 mg/kg 30 min i.v. infusion, read-out: Vdss) of the same compound?
**A.** 1.93 L/kg

**Q.** With `Nc1ccn([C@@H]2O[C@H](COP(=O)(O)O)[C@@H](O)C2(F)F)c(=O)n1` [GEMMP, gemcitabine-5′-phosphate] as the compound, how does the “plasma values after the infusion period” value [1, 7] read?
**A.** below the LLOQ

**Q.** And the Tmax [1, 9]?
**A.** 30 min

**Q.** And the Cmax [1, 9]?
**A.** 224 ng/mL

**Q.** And the AUC [1, 9]?
**A.** 83 ng·h/mL

**Q.** And the “%-ACC, frozen PK sample stability” value [5]?
**A.** 64.0%

**Q.** What about the “%-ACC, frozen PK sample stability” value [6] of the same compound?
**A.** 58.1%

**Q.** For `CCCCCN(C)CCC(O)(P(=O)(O)O)P(=O)(O)O` [IB, ibandronate], which “Rate Constant” value [1, 7] is on record?
**A.** 0.7 h⁻¹

**Q.** And the half-life [1, 8]?
**A.** 55.9 min

**Q.** And the half-life [1, 10]?
**A.** 55 min

**Q.** What about the Tmax [1, 9] of the same compound?
**A.** 30 min

**Q.** And the Cmax [1, 9]?
**A.** 4740 ng/mL

**Q.** And the AUC [1, 9]?
**A.** 5720 ng·h/mL

**Q.** And the “duration stable in human plasma” value ([2]; −20 °C)?
**A.** up to 4 months

**Q.** Which “Rate Constant” value [1, 7] does the source give for `O=c1ccn([C@@H]2O[C@H](CO)[C@@H](O)C2(F)F)c(=O)[nH]1` [dFdU, 2′,2′-difluoro-2′-deoxyuridine] here?
**A.** 0.1 h⁻¹

**Q.** And the half-life [1, 8]?
**A.** 591 min

**Q.** What about the Tmax [1, 9] of the same compound?
**A.** 270 min

**Q.** What about the Cmax [1, 9] of the same compound?
**A.** 330 ng/mL

**Q.** What about the AUC [1, 9] of the same compound?
**A.** 6570 ng·h/mL

**Q.** And the “%-ACC, frozen PK sample stability” value [5]?
**A.** 71.5%

**Q.** And the “%-ACC, frozen PK sample stability” value [6]?
**A.** 63.4%

**Q.** What about the “duration stable in mouse plasma” value [3] of the same compound?
**A.** up to 42 days

**Q.** Which “Rate Constant” value [1, 7] does the source give for `O=c1ccn([C@@H]2O[C@H](COP(=O)(O)O)[C@@H](O)C2(F)F)c(=O)[nH]1` [dFdUMP, 2′,2′-difluoro-2′-deoxyuridine-5′-phosphate] here?
**A.** 7.0 h⁻¹

**Q.** What about the half-life [1, 8] of the same compound?
**A.** 5.94 min

**Q.** And the Tmax [1, 9]?
**A.** 30 min

**Q.** And the Cmax [1, 9]?
**A.** 23 ng/mL

**Q.** What about the AUC [1, 9] of the same compound?
**A.** 11 ng·h/mL

**Q.** What about the “%-ACC, frozen PK sample stability” value [5] of the same compound?
**A.** 108.1%

**Q.** And the “%-ACC, frozen PK sample stability” value [6]?
**A.** 49.3%
